Here are results for 9 compounds from ChEMBL document CHEMBL1938237, “Bioactive lipids from the sponge Spirastrella abata” (Bioorg Med Chem Lett, 2012).

SMILES strings stand for the structures. Converted amounts (≈) assume the structure as drawn.

A short description of test [1]: Inhibition of isocitrate lyase.
The test system of a further test is Candida albicans. The experiment in a line: Antifungal activity against Candida albicans ATCC 10231. In kind it is functional.
Another test relates to Aspergillus fumigatus. The experiment in a line: Antifungal activity against Aspergillus fumigatus HIC 6094. In kind it is functional.
A short description of test [2]: Inhibition of Na+/K+ ATPase.
Another test relates to Bacillus subtilis. In words: Antibacterial activity against Bacillus subtilis ATCC 6633. In kind it is functional.
For another test, the system named is Proteus vulgaris. In words: Antibacterial activity against Proteus vulgaris ATCC 3851. In kind it is functional.
In another test the test system is Salmonella typhimurium. In words: Antibacterial activity against Salmonella Typhimurium ATCC 14028. In kind it is functional, Salmonella enterica subsp. enterica serovar Typhimurium. The settings on record: Salmonella enterica.
Test [3] relates to Trichophyton mentagrophytes. The experiment in a line: Antifungal activity against Trichophyton mentagrophytes IFO 40996. In kind it is functional.
A further test relates to Staphylococcus aureus. In words: Antibacterial activity against Staphylococcus aureus ATCC 6538p. In kind it is functional.
The subject of the next test is K562. The experiment in a line: Cytotoxicity against human K562 cells. In kind it is functional. The conditions noted are these: read-out: LC50 (the source's name).
Another test relates to Micrococcus luteus. The experiment in a line: Antibacterial activity against Micrococcus luteus IFO 12708. In kind it is functional.
Another test deals with Escherichia coli. In words: Antibacterial activity against Escherichia coli ATCC 35270. In kind it is functional.
The next test deals with Trichophyton rubrum. In words: Antifungal activity against Trichophyton rubrum IFO 9185. In kind it is functional.

One may read the IC50 as the concentration at which inhibition is half-maximal. The term MIC denotes the lowest concentration that inhibits growth of the organism.

In the case of `CCCCCCCCCCC/C=C/C[C@H](OS(=O)(=O)O)[C@H](O)[C@H](N)CO`, the concentration for half-maximal inhibition (IC50) was determined as 2 µM in test [1] and 25 µM in test [2]. In addition, the MIC against Candida albicans amounted to 50 µg/mL (≈ 126 µM); against Aspergillus fumigatus it was 100 µg/mL (≈ 253 µM); against Bacillus subtilis, 6 µg/mL (≈ 15.2 µM); with Proteus vulgaris, 25 µg/mL (≈ 63.2 µM); in the test with Salmonella typhimurium it was 100 µg/mL (≈ 253 µM); in test [3] it was 50 µg/mL (≈ 126 µM). The MIC in the test with Staphylococcus aureus was 50 µg/mL (≈ 126 µM); in the test with Micrococcus luteus it was 25 µg/mL (≈ 63.2 µM); against Escherichia coli it was > 100 µg/mL; in the test on Trichophyton rubrum it was > 100 µg/mL. The CC50 in the test with K562 worked out at 8 µM.
On to `CCCCCCCCCC/C=C/C[C@H](OS(=O)(=O)O)[C@H](O)[C@H](N)CO`, for which the figures for the IC50 in test [1] and in [2] were 20 µM and 21 µM, respectively. In addition, the MIC against Candida albicans was > 100 µg/mL; in the test with Aspergillus fumigatus, > 100 µg/mL; in the test on Bacillus subtilis it was 12 µg/mL (≈ 31.5 µM); in the test on Proteus vulgaris, 25 µg/mL (≈ 65.5 µM); against Salmonella typhimurium it was > 100 µg/mL; in test [3] it was > 100 µg/mL. In addition, the MIC in the test on Staphylococcus aureus is > 100 µg/mL; against Micrococcus luteus it was 100 µg/mL (≈ 262 µM); in the test on Escherichia coli it was > 100 µg/mL; in the test on Trichophyton rubrum, > 100 µg/mL. Further, the CC50 in the test with K562 worked out at 7 µM.
For `CC(C)CCCCCCCC/C=C/C[C@H](OS(=O)(=O)O)[C@H](O)[C@H](N)CO`, the IC50 amounted to 24 µM in test [1] and 21 µM in [2]. Further, the minimum inhibitory concentration (MIC) in the test on Candida albicans is > 100 µg/mL; in the test with Aspergillus fumigatus, > 100 µg/mL; with Bacillus subtilis it was 100 µg/mL (≈ 253 µM); in the test on Proteus vulgaris, 100 µg/mL (≈ 253 µM); with Salmonella typhimurium it was 100 µg/mL (≈ 253 µM); in test [3], > 100 µg/mL. For the same compound, the MIC against Staphylococcus aureus is > 100 µg/mL; against Micrococcus luteus, 100 µg/mL (≈ 253 µM); with Escherichia coli, > 100 µg/mL; with Trichophyton rubrum it was > 100 µg/mL. Besides, in the test with K562, the CC50 came to 8 µM.
In [1], `O=C(O)CC[N+](=O)[O-]` gave an IC50 of 1 µM.
Turning to `CCCCCC[C@H]1C[C@H]1CCCCCCCCCC(=O)OC[C@@H](O)COP(=O)([O-])OCC(O)CO.[Na+]` (relative stereo), the results for the IC50 in test [1] and in test [2] were 87 µM and 4 µM, respectively. In addition, the MIC against Candida albicans was 13 µg/mL; with Aspergillus fumigatus, > 100 µg/mL; in the test on Proteus vulgaris, > 100 µg/mL; with Staphylococcus aureus, > 100 µg/mL. In addition, in the test with K562, the CC50 was 4 µM.
As for `C[C@@H]1[C@H](O)[C@@H](C)/C=C/C=C/C=C/C=C/C=C/C=C/C=C/[C@H](O[C@@H]2O[C@H](C)[C@@H](O)[C@H](N)[C@@H]2O)C[C@@H]2O[C@](O)(C[C@@H](O)C[C@@H](O)[C@H](O)CC[C@@H](O)C[C@@H](O)CC(=O)O[C@H]1C)C[C@H](O)[C@H]2C(=O)O` [AMPHOTERICIN B], the MIC in the test on Candida albicans amounted to 1 µg/mL (≈ 1.08 µM); against Aspergillus fumigatus, 1 µg/mL (≈ 1.08 µM); in test [3] it was 2 µg/mL (≈ 2.16 µM); against Trichophyton rubrum, 2 µg/mL (≈ 2.16 µM).
As for `CC1(C)S[C@@H]2[C@H](NC(=O)[C@H](N)c3ccccc3)C(=O)N2[C@H]1C(=O)O` [AMPICILLIN], the MIC came to 2 µg/mL (≈ 5.72 µM) against Bacillus subtilis; 1 µg/mL (≈ 2.86 µM) in the test on Proteus vulgaris; 2 µg/mL (≈ 5.72 µM) in the test on Salmonella typhimurium; 1 µg/mL (≈ 2.86 µM) against Staphylococcus aureus; 2 µg/mL (≈ 5.72 µM) with Micrococcus luteus; 6 µg/mL (≈ 17.2 µM) against Escherichia coli.
Consider `COc1cccc2c1C(=O)c1c(O)c3c(c(O)c1C2=O)C[C@@](O)(C(=O)CO)C[C@@H]3O[C@H]1C[C@H](N)[C@H](O)[C@H](C)O1` [DOXORUBICIN], for which the CC50 in the test on K562 came out at 7 µM.
Compound `C[C@@H]1O[C@@H](O[C@H]2C[C@@H](O)[C@]3(CO)[C@H]4[C@H](O)C[C@]5(C)[C@@H](C6=CC(=O)OC6)CC[C@]5(O)[C@@H]4CC[C@]3(O)C2)[C@H](O)[C@H](O)[C@H]1O` [OUABAIN] gave an IC50 in test [2] of 4 µM.
